Measured values reported in article PMC10653080, “Intermolecular Interactions, Solute Descriptors, and Partition Properties of Neutral Per- and Polyfluoroalkyl Substances (PFAS)” (Environmental Science & Technology, 2023).
Like-named read-outs stand apart in the source and are kept apart here.

Assay: PP-LFER solute descriptor determination from GC retention and partition coefficient data
Type: physicochemical
Settings: for Solute descriptor S (dipolarity/polarizability parameter): final adjusted value, shared within a PFAS group
Description: The GC columns used were, from low to high polarity, HP-5ms Ultra Inert (poly[5% phenyl/95% methyl]siloxane equivalent; Agilent Technologies, Santa Clara, CA), DB-200 (poly[35% trifluoropropyl/65% methyl]siloxane; Agilent Technologies), DB-225ms (poly[50% cyanopropylphenyl/50% methyl]siloxane equivalent; Agilent Technologies), and SolGel-WAX (polyethylene glycol; Trajan, Ringwood, Australia). Column dimensions were all 30 m × 0.25 mm i.d. with a coating thickness of 0.25 μm.
The method for GC retention time measurements follows that of a previous study.[18] Briefly, a 7890A/5975C GC/MS instrument (Agilent Technologies) equipped with an MPS2 autosampler and CIS4 injector (Gerstel, Mülheim an der Ruhr, Germany) was used for all measurements. For each column, isothermal retention times were measured at four temperatures in the range of 30–120 °C to cover all target compounds. The temperature at the injector and transfer line was fixed at 120 °C. The carrier gas was He at a flow rate of 1.2 mL/min. Compounds were introduced into the GC by injecting either headspace (100–250 μL) above the pure compound or solution in acetone (1 μL). Split injections were performed with a split ratio of 20–250. Column dead time (t0) was determined by injecting air and measuring Ar (m/z 40). From the measured retention time (t), the retention factor (k) was calculated as k = (t–t0)/t0. Measurements with t < t0 + 0.1 min were considered too short and discarded. For each column and temperature, k values were obtained for 29–52 PFAS and 29–48 reference compounds.
The standard procedure for solute descriptor determination was as follows. First, the system parameters in eq 1 were calibrated for each column (or partition system) and temperature by MLR using log k (or log K) data and solute descriptors for reference compounds. Dimethylformamide, 1-pentylamine, dimethylsulfoxide, and dodecamethylcyclohexasiloxane (D6) were removed from the log k data sets, because they frequently appeared as outliers (>3 SD) of the PP-LFER model fit. Reference data sets for hexadecane/water partition coefficients (KHxd/w),[21]Kow,[22] and octanol/air partition coefficients (Koa)[23] were taken from the cited references and amended with data for organosilicon compounds.[24],[25] Similar to PFAS, organosilicon compounds have weak van der Waals interaction properties[9] and it may be beneficial to include them in reference data sets. The solute descriptors for PFAS were then back-calculated by using the calibrated PP-LFER equations. Of the five descriptors, V can be calculated from the molecular structure[26] (note: the fragment value for F from Goss et al.[11] was used), and L was available for the PFAS studied.[18] Thus, the left side of eq 2 was known, and MLR was performed to obtain S, A, and B on the right side. [drawing 2] 2 To determine the three descriptors, a minimum of three k and K data are required for a given PFAS compound. The data used here were: k measured for 60 PFAS in this study, KHxd/w for 21 PFAS,[5]Kow for 12 PFAS (see the Results and Discussion section), and Koa for 3 PFAS.[11]
Key to the accurate determination of the polar interaction descriptors is the availability of K data for partition systems with water as a partition phase because water is a strong H-bond donor and acceptor phase and thus the corresponding K values are sensitive to the H-bonding properties of the solute.[27] In particular, at least one solvent/water or air/water partition coefficient is required to determine B because there is no commonly used GC phase that is a significant H-bond donor. In the data set, KHxd/w is sensitive to both A and B and Kow is sensitive to B. However, KHxd/w and Kow data are not available for all PFAS. To increase the number of PFAS for which descriptors can be determined, the following assumptions were made. […]

[1] = 25 °C, updated in the iterative calculation
[2] = difference of descriptor values

SMILES	Solute descriptor L (logarithmic hexadecane/air partition coefficient, KHxd/air) [1]	A value higher than perfluorinated counterpart, perfluorooctane [2]	L value higher than perfluorinated counterpart, perfluorooctane [2]	Solute descriptor S (dipolarity/polarizability parameter)	Solute descriptor L (logarithmic hexadecane/air partition coefficient, KHxd/air)
FC(F)C(F)(F)C(F)(F)C(F)(F)C(F)(F)C(F)(F)C(F)(F)C(F)F [1,8-DHPFO, 1H,8H-Perfluorooctane]	2.130	0.24	0.78	0.38	–
C=CC(F)(F)C(F)(F)C(F)(F)C(F)(F)C(F)(F)C(F)(F)C(F)(F)C(F)(F)C=C [1,8-DVPFO, 1,8-Divinylperfluorooctane]	3.927	–	–	0.44	–
OCC(F)(F)C(F)(F)C(F)(F)F [3:1 FTOH, 1H,1H-Perfluorobutan-1-ol]	1.542	–	–	0.30	–
FC(F)(F)C(F)(F)C(F)(F)C(F)(F)CCI [4:2 FTI, 1H,1H,2H,2H-Perfluorohexyl iodide]	3.325	–	–	0.32	–
C=C(C)C(=O)OCCC(F)(F)C(F)(F)C(F)(F)C(F)(F)F [4:2 FTMAC, 1H,1H,2H,2H-Perfluorohexyl methacrylate]	3.990	–	–	0.53	–
C=CC(F)(F)C(F)(F)C(F)(F)C(F)(F)F [4:2 FTO, 1H,1H,2H-Perfluoro-1-hexene]	1.451	–	–	0.11	–
C=CC(=O)OCCC(F)(F)C(F)(F)C(F)(F)C(F)(F)C(F)(F)C(F)(F)F [6:2 FTAC, 1H,1H,2H,2H-Perfluorooctyl acrylate]	4.098	–	–	0.54	–
OCc1ccc(CCC(F)(F)C(F)(F)C(F)(F)C(F)(F)C(F)(F)C(F)(F)F)cc1 [6:2 FTBnOH, 4-(1H,1H,2H,2H-Perfluorooctyl)benzyl alcohol]	6.656	–	–	0.75	–
FC(F)(F)C(F)(F)C(F)(F)C(F)(F)C(F)(F)C(F)(F)CCI [6:2 FTI, 1H,1H,2H,2H-Perfluorooctyl iodide]	3.892	–	–	0.32	–
C=C(C)C(=O)OCCC(F)(F)C(F)(F)C(F)(F)C(F)(F)C(F)(F)C(F)(F)F [6:2 FTMAC, 1H,1H,2H,2H-Perfluorooctyl methacrylate]	4.553	–	–	0.53	–
C=CC(F)(F)C(F)(F)C(F)(F)C(F)(F)C(F)(F)C(F)(F)F [6:2 FTO, 1H,1H,2H-Perfluoro-1-octene]	2.022	–	–	0.11	–
C=CC(=O)OCCC(F)(F)C(F)(F)C(F)(F)C(F)(F)C(F)(F)C(F)(F)C(F)(F)C(F)(F)F [8:2 FTAC, 1H,1H,2H,2H-Perfluorodecyl acrylate]	4.661	–	–	0.54	–
CC(=O)OCCC(F)(F)C(F)(F)C(F)(F)C(F)(F)C(F)(F)C(F)(F)C(F)(F)C(F)(F)F [8:2 FTAce, 1H,1H,2H,2H-Perfluorodecyl acetate]	–	–	–	0.54	4.234
FC(F)(F)C(F)(F)C(F)(F)C(F)(F)C(F)(F)C(F)(F)C(F)(F)C(F)(F)CCI [8:2 FTI, 1H,1H,2H,2H-Perfluorodecyl iodide]	4.455	–	–	0.32	–
C=C(C)C(=O)OCCC(F)(F)C(F)(F)C(F)(F)C(F)(F)C(F)(F)C(F)(F)C(F)(F)C(F)(F)F [8:2 FTMAC, 1H,1H,2H,2H-Perfluorodecyl methacrylate]	–	–	–	0.53	5.115
C=CC(F)(F)C(F)(F)C(F)(F)C(F)(F)C(F)(F)C(F)(F)C(F)(F)C(F)(F)F [8:2 FTO, 1H,1H,2H-Perfluoro-1-decene]	2.504	–	–	0.11	–
C=CC(=O)OCCC(F)(F)C(F)(F)C(F)(F)C(F)(F)C(F)(F)C(F)(F)C(F)(F)C(F)(F)C(F)(F)C(F)(F)F [10:2 FTAC, 1H,1H,2H,2H-Perfluorododecyl acrylate]	–	–	–	0.54	5.221
FC(F)(F)C(F)(F)C(F)(F)C(F)(F)C(F)(F)C(F)(F)C(F)(F)C(F)(F)C(F)(F)C(F)(F)CCI [10:2 FTI, 1H,1H,2H,2H-Perfluorododecyl iodide]	–	–	–	0.32	5.020
C=C(C)C(=O)OCCC(F)(F)C(F)(F)C(F)(F)C(F)(F)C(F)(F)C(F)(F)C(F)(F)C(F)(F)C(F)(F)C(F)(F)F [10:2 FTMAC, 1H,1H,2H,2H-Perfluorododecyl methacrylate]	–	–	–	0.53	5.671
C=CC(F)(F)C(F)(F)C(F)(F)C(F)(F)C(F)(F)C(F)(F)C(F)(F)C(F)(F)C(F)(F)C(F)(F)F [10:2 FTO, 1H,1H,2H-Perfluoro-1-dodecene]	–	–	–	0.11	3.031
OCCC(F)(F)C(F)(F)C(F)(F)C(F)(F)C(F)(F)C(F)(F)C(F)(F)C(F)(F)C(F)(F)C(F)(F)F [10:2 FTOH, 1H,1H,2H,2H-Perfluorododecan-1-ol]	–	–	–	0.35	4.117
OCCC(F)(F)C(F)(F)C(F)(F)C(F)(F)C(F)(F)C(F)(F)C(F)(F)C(F)(F)C(F)(F)C(F)(F)C(F)(F)C(F)(F)F [12:2 FTOH, 1H,1H,2H,2H-Perfluorotetradecan-1-ol]	–	–	–	0.35	4.682
C=CCOCC(F)(F)C(F)(F)C(F)(F)C(F)(F)C(F)(F)C(F)(F)C(F)(F)F [AFOE, Allyl 1H,1H-perfluorooctyl ether]	3.584	–	–	0.30	–
C=CCOC(F)(C(F)(F)F)C(F)(F)F [APFIPE, Allyl perfluoroisopropyl ether]	1.717	–	–	0.15	–
CCNS(=O)(=O)C(F)(F)C(F)(F)C(F)(F)C(F)(F)C(F)(F)C(F)(F)F [EtFHxSA, N-Ethylperfluorohexanesulfonamide]	4.400	–	–	0.88	–
CCN(CCO)S(=O)(=O)C(F)(F)C(F)(F)C(F)(F)C(F)(F)C(F)(F)C(F)(F)F [EtFHxSE, N-Ethylperfluorohexanesulfonamidoethanol]	5.685	–	–	1.00	–
CCNS(=O)(=O)C(F)(F)C(F)(F)C(F)(F)C(F)(F)C(F)(F)C(F)(F)C(F)(F)C(F)(F)F [EtFOSA, N-Ethylperfluorooctanesulfonamide]	–	–	–	0.88	4.967
CCN(CCO)S(=O)(=O)C(F)(F)C(F)(F)C(F)(F)C(F)(F)C(F)(F)C(F)(F)C(F)(F)C(F)(F)F [EtFOSE, N-Ethylperfluorooctanesulfonamidoethanol]	–	–	–	1.00	6.253
